Test results published in patent publication US20220127247A1, “N-(PYRIDIN-2-YL)PYRIDINE-SULFONAMIDE DERIVATIVES AND THEIR USE IN THE TREATMENT OF DISEASE” (NOVARTIS AG, priority 2019, published 2022).

Target: T1, delF508-CFTR (Homo sapiens, UniProt P13569, DEL508-508)
T1 construct: expressed in transfected cells
Assay: Measurement of delF508-CFTR-HRP surface expression in CFBE41o- cells
Format: cell-based
Conditions: for EC50: HRP-tagged delF508-CFTR in CFBE41o- cells, 24 h with compound, luminescence, 10-point curve, top 10 μM; for Emax: efficacy relative to reference compound 3-(6-(1-(2,2-difluorobenzo[d][1,3]dioxol-5-yl)cyclopropane-1-carboxamido)-3-methylpyridin-2-yl)benzoic acid, CFBE41o- cells, 24 h, read-out: DelF508-CFTR-HRP Amax %
Source text: Measurement of delF508-CFTR-HRP Surface Expression in CFBE41o-Cells
This assay quantifies the cell surface expressions of the mutant CFTR channel using an extracellular HRP tag.
A cellular assay was developed to measure surface expression of horseradish peroxidase (HRP) tagged delF508-CFTR in the human bronchial epithelial immortalized CFBE41o-cell line (Phuan, P. W., et al, (2014) Molecular Pharmacology 86:42-51). Specifically, the HRP sequence was inserted into the fourth extracellular loop of delF508-CFTR and stably expressed in CFBE41o-cells. Cells were seeded in 384 well plate at a density of 5000 cells/well and incubated at 37° C. for 12 to 24 hours in medium (Gibco MEM #11095, 10% FBS, 10 mM HEPES, […], 200 μg/mL G418, 3 μg/mL Puromycin). The delF508-CFTR-HRP expression was induced with 500 ng/mL doxycycline (Sigma D-9891, dissolved in H2O and sterile filtered) in medium and the cells were incubated at 37° C. for 48 h. Old medium was removed and fresh medium was added containing 500 ng/mL doxycycline and unknown test compound at required test concentration in DMSO, not exceeding 0.5% final DMSO concentration. The highest concentration tested was 10 μM with a 10-point concentration response curve using a 3-fold dilution. After addition of compounds, the cells were incubated for 24 h at 37° C. On the final day, cells were washed four times in PBS containing 1 mM MgCl2 and 0.1 mM CaCl2. HRP-Substrate (SuperSignal ELISA Pico, Fisher #37069) 20 μl/well was added and the luminescence signal was determined (Viewlux, Perkin Elmer). Light was emitted upon addition of exogenous HRP-Substrate only when delF508-CFTR-HRP reached the cell surface and the HRP tag was accessible to the HRP-Substrate (note: HRP-Substrate cannot cross the lipid bilayer to reach delF508-CFTR-HRP misfolded within the cell).
The median activity for the lowest concentration of the compounds on each assay plate was calculated and this value was used to normalize the signal for each well on the respective plate. Three replicates at each concentrations for every compound were run to determine one EC50. The median value was determined and used to calculate compound activities as described below. Effective half maximal values (EC50) were calculated for each compound by performing logistic regression on measured dose-response data points using the equation: […]
where “Y” is the observed activity, “Bottom” is the lowest observed value, “Top” is the highest observed value, and the “Hill coefficient” gives the largest absolute value of the slope. The curve fitting is carried out by a curve fitting program implemented at GNF using Matlab (Mathworks).
The dose response curves also were used to calculate Fold Change (FC) using the equation: […]
Compound efficacy relative to the reference compound 3-(6-(1-(2,2-difluorobenzo[d][1,3]dioxol-5-yl)cyclopropane-1-carboxamido)-3-methylpyridin-2-yl)benzoic acid was determined using the following formula: […]

T1 sequence (P13569 with tags, fused parts or gaps DEL508-508): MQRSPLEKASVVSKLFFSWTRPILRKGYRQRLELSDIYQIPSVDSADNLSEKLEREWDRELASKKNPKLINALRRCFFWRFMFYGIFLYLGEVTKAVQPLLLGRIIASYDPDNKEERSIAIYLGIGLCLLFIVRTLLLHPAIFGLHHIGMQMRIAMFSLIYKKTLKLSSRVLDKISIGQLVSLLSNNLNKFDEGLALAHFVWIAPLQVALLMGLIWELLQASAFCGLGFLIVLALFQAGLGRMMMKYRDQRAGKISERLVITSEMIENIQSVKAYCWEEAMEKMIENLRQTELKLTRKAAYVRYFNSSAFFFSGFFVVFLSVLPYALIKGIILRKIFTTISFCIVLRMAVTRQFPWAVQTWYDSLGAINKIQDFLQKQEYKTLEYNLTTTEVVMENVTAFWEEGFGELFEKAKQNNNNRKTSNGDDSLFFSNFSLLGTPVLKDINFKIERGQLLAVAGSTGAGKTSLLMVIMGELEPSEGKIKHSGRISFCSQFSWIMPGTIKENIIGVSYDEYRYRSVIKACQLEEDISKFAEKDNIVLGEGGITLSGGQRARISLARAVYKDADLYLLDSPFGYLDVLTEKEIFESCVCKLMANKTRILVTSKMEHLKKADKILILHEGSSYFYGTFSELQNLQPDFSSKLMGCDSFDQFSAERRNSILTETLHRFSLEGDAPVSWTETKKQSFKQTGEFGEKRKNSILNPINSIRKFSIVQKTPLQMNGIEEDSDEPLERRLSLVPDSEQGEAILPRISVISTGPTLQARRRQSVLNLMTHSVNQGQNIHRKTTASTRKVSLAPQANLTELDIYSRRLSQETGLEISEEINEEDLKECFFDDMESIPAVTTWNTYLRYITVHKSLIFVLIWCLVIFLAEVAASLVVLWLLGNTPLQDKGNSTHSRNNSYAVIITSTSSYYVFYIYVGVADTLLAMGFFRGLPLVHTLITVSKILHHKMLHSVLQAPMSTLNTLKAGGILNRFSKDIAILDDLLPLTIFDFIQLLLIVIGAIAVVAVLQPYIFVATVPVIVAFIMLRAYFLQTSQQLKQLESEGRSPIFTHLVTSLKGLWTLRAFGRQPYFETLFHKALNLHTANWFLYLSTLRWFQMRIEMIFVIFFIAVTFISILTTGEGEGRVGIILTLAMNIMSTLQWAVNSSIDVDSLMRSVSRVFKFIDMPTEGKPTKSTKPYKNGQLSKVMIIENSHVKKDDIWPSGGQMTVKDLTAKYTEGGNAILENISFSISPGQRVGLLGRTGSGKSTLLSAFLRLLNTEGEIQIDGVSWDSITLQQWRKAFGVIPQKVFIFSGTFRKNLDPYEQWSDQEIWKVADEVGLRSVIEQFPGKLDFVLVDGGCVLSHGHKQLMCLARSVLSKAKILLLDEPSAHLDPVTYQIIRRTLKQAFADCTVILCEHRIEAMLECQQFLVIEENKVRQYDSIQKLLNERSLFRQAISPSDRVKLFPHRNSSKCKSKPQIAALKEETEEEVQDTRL

Row | Structure (SMILES) | EC50 [nM] | Emax [%]
1 | O=C(O)CCNc1cccc(S(=O)(=O)Nc2ccc(C(F)(F)F)c(-c3ccccc3C3CC3)n2)n1 [Compound 39, 3-((6-(N-(6-(2-cyclopropylphenyl)-5-(trifluoromethyl)pyridin-2-yl)sulfamoyl)pyridin-2-yl)amino)propanoic Acid] | 3260 | 257
2 | O=C(O)CCCNc1cccc(S(=O)(=O)Nc2ccc(C(F)(F)F)c(-c3ccccc3C3CC3)n2)n1 [Compound 40, 4-((6-(N-(6-(2-cyclopropylphenyl)-5-(trifluoromethyl)pyridin-2-yl)sulfamoyl)pyridin-2-yl)amino)butanoic Acid] | 2530 | 314
3 | CN(CCCC(=O)O)c1cccc(S(=O)(=O)Nc2ccc(C(F)(F)F)c(-c3ccccc3C3CC3)n2)n1 [Compound 41, 4-((6-(N-(6-(2-cyclopropylphenyl)-5-(trifluoromethyl)pyridin-2-yl)sulfamoyl)pyridin-2-yl)(methyl)amino)butanoic Acid] | 1480 | 
4 | O=C(O)CCCCNc1cccc(S(=O)(=O)Nc2ccc(C(F)(F)F)c(-c3ccccc3C3CC3)n2)n1 [Compound 42, 5-((6-(N-(6-(2-cyclopropylphenyl)-5-(trifluoromethyl)pyridin-2-yl)sulfamoyl)pyridin-2-yl)amino)pentanoic Acid] | 2670 | 507
5 | Cc1ccccc1-c1nc(NS(=O)(=O)c2cccc(NCCCCC(=O)O)n2)ccc1C(F)(F)F [Compound 43, 5-((6-(N-(6-(o-tolyl)-5-(trifluoromethyl)pyridin-2-yl)sulfamoyl)pyridin-2-yl)amino)pentanoic Acid] | 2370 | 407
6 | CC(C)c1ccccc1-c1nc(NS(=O)(=O)c2cccc(N(C)CCC(=O)O)n2)ccc1C(F)(F)F [Compound 44, 3-((6-(N-(6-(2-isopropylphenyl)-5-(trifluoromethyl)pyridin-2-yl)sulfamoyl)pyridin-2-yl)(methyl)amino)propanoic Acid] | 1520 | 
7 | Cc1ccc(F)cc1-c1nc(NS(=O)(=O)c2cccc(N(C)CC(C)(C)C(=O)O)n2)ccc1C(F)(F)F [Compound 45, 3-((6-(N-(6-(5-fluoro-2-methylphenyl)-5-(trifluoromethyl)pyridin-2-yl)sulfamoyl)pyridin-2-yl)(methyl)amino)-2,2-dimethylpropanoic Acid] | 1570 | 598
8 | Cc1ccccc1-c1nc(NS(=O)(=O)c2cccc(N(C)CC(C)(C)C(=O)O)n2)ccc1C(F)(F)F [Compound 46, 2,2-dimethyl-3-(methyl(6-(N-(6-(o-tolyl)-5-(trifluoromethyl)pyridin-2-yl)sulfamoyl)pyridin-2-yl)amino)propanoic Acid] | 1810 | 493
9 | Cc1c(F)cccc1-c1nc(NS(=O)(=O)c2cccc(N(C)CC(C)(C)C(=O)O)n2)ccc1C(F)(F)F [Compound 47, 3-((6-(N-(6-(3-fluoro-2-methylphenyl)-5-(trifluoromethyl)pyridin-2-yl)sulfamoyl)pyridin-2-yl)(methyl)amino)-2,2-dimethylpropanoic Acid] | 1820 | 496
10 | Cc1ccc(F)cc1-c1nc(NS(=O)(=O)c2cccc(N(C)CCC(=O)O)n2)ccc1C(F)(F)F [Compound 48, 3-((6-(N-(6-(5-fluoro-2-methylphenyl)-5-(trifluoromethyl)pyridin-2-yl)sulfamoyl)pyridin-2-yl)(methyl)amino)propanoic Acid] | 2040 | 513
11 | Cc1c(F)cccc1-c1nc(NS(=O)(=O)c2cccc(N(C)CCC(=O)O)n2)ccc1C(F)(F)F [Compound 49, 3-((6-(N-(6-(3-fluoro-2-methylphenyl)-5-(trifluoromethyl)pyridin-2-yl)sulfamoyl)pyridin-2-yl)(methyl)amino)propanoic Acid] | 2030 | 557
12 | Cc1c(F)cccc1-c1nc(NS(=O)(=O)c2cccc(N3CCCC(C)(CC(=O)O)C3)n2)ccc1C(F)(F)F (stereo not shown) [Compound 50, 2-(1-(6-(N-(6-(3-fluoro-2-methylphenyl)-5-(trifluoromethyl)pyridin-2-yl)sulfamoyl)pyridin-2-yl)-3-methylpiperidin-3-yl)acetic Acid] | 2100 | 867
